Target: T1, Sh-PPase (Mn-Sh-PPase; Mg-Sh-PPase) (Shewanella sp. AS-11, UniProt L8AXY8)
T1 construct: gene ppia; recombinant full-length (no tag stated), expressed in E. coli BL21 (DE3); ammonium sulphate fractionation, anion exchange, gel filtration; family II PPases are homodimers
T1 sequence (L8AXY8 2-308): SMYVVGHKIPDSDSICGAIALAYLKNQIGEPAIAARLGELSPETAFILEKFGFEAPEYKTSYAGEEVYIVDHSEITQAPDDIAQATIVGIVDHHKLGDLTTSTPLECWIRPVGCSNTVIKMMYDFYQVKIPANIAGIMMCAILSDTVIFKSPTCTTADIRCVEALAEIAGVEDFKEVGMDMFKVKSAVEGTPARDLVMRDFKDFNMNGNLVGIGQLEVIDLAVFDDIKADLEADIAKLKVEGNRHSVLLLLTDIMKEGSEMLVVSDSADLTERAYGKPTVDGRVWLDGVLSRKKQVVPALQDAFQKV
Assay: CW X-band EPR of the di-Mn centre
Type: binding
Conditions: Mn-activated enzyme, pH 7.5, frozen solution

Structure (SMILES) | CW X-band EPR of the di-Mn centre (substrate analogue, di-Mn centre signal lost on binding (inferred binding)) | CW X-band EPR of the di-Mn centre (added as ammonium sulphate, substrate binding site)
O=P(O)(O)CP(=O)(O)O [PCP, methylendiphosphonic acid] | binding of PCP induced the decomposition of the di-Mn centre | 
O=S(=O)(O)O [sulphate] |  | sulphate ion bound correctly to the substrate binding site

Reference: article PMC7062746, “X-ray Crystallography and Electron Paramagnetic Resonance Spectroscopy Reveal Active Site Rearrangement of Cold-Adapted Inorganic Pyrophosphatase” (Scientific Reports, 2020)
